Measured values taken from patent publication US20180098977A1, “SCALABLE MICROPARTICULATE FORMULATIONS CONTAINING POLYMORPHIC NIMODIPINE FORM 2 PREPARED BY A SOLVENT EVAPORATION PROCESS” (Edge Therapeutics, Inc., priority 2016, published 2018).

Key:
[1] = at 25° C.; cited from earlier work
[2] = tested on: subjects with an aneurysmal subarachnoid hemorrhage (aSAH); experiment: NEWTON Phase 1/2 study, efficacy and safety; format: in vivo, human
Excerpt: NEWTON (Nimodipine microparticles to Enhance recovery While reducing TOxicity after subarachNoid hemorrhage) was a multicenter, randomized, controlled, open-label Phase 1/2 study evaluating the safety, tolerability and pharmacokinetics of escalating doses of a polymeric nimodipine microparticle suspended in a diluent of hyaluronic acid (EG-1962) compared to the current standard of care, oral nimodipine, in subjects with an aneurysmal subarachnoid hemorrhage (aSAH).
Fifty-four patients were randomized to receive EG-1962 and 18 patients were randomized to receive oral nimodipine.
The primary endpoint was to establish the maximum tolerated dose, which has been determined to be 800 mg. […] The secondary endpoint of characterizing the pharmacokinetics of EG-1962 was also met. The steady-state plasma concentration measured in patients treated with EG-1962 was below 30 ng/ml, the level of plasma concentration observed to cause systemic hypotension.

Row | Structure (SMILES) | solubility in water [1] [mg 100 mL^−1] | patients who achieved a favorable outcome (scores of 6-8, Extended Glasgow Outcome Score [GOSE]) ([2]; at 90 days, pooled efficacy results) [%] | patients who experienced drug-related hypotension ([2]; human, in vivo) [%]
1 | COCCOC(=O)C1=C(C)NC(C)=C(C(=O)OC(C)C)C1c1cccc([N+](=O)[O-])c1 (racemic) [Mod I, Nimodipine] | 0.036±0.007 | – | –
2 | COCCOC(=O)C1=C(C)NC(C)=C(C(=O)OC(C)C)C1c1cccc([N+](=O)[O-])c1 (stereo not shown) [Mod II, Nimodipine] | 0.018±0.004 | – | –
3 | COCCOC(=O)C1=C(C)NC(C)=C(C(=O)OC(C)C)C1c1cccc([N+](=O)[O-])c1 (stereo not shown) [nimodipine, isopropyl(2-methoxyethyl)-1,4-dihydro-2,6-dimethyl-4-(3-nitrophenyl)-3,5-pyridinedicarboxylate] | – | 28 | 17
